Assay results: patent US8338492B2, “Films and particles” (priority 2006, dated 2012)

How the values were obtained:
Melanoma cell line = settings: 5 days, media containing 10% FBS
Procedure: Cell proliferation assays testing the effects of paclitaxel were performed using three tumor cell lines. Lewis Lung Carcinoma (LLC), Melanoma and Calu6 (human lung cancer) cell lines were plated at 3,000 cells/well and when established, cultured in media with/without paclitaxel. Some cultures were maintained with optimal growth factors (serum) whereas others were serum starved (non-growing) cultures. At the end of 5 days, tumor cell proliferation was assessed via MTT analysis.
To determine the kinetics of the anti-tumor response elicited by paclitaxel-loaded microparticles and to assess for a potential “burst effect” of drug release, a cell proliferation assay comparing paclitaxel-loaded microparticles and DMSO (control) microparticles using the melanoma cell line was run for five consecutive days with a plate undergoing MTT analysis each day for days 2-5. Paclitaxel loaded microparticles and DMSO microparticles were added to serum rich media and individually assessed on tumor cells of the same plate.

[1] = tested on: Calu6 (human lung cancer) cell line; experiment: Cell proliferation assay (MTT, 5 days) with paclitaxel; type: cell-based; settings: media containing 10% FBS
Procedure: (§1) Lewis Lung Carcinoma (LLC), Melanoma and Calu6 (human lung cancer) cell lines were plated at 3,000 cells/well and when established, cultured in media with/without paclitaxel.

Tumor cells = settings: estimated
Procedure: Cell proliferation assays were utilized to study the effects of paclitaxel-loaded microparticles on tumor growth. Tumor cells were plated at 3000 cells/well and positive (serum-rich) and negative (serum-poor) cultures were used to signify 0% and 100% growth inhibition respectively.

[2] = tested on: Lewis Lung Carcinoma (LLC) cell line; experiment: Cell proliferation assay (MTT, 5 days) with paclitaxel; type: cell-based, murine; settings: media containing 10% FBS
Procedure: as §1

Structure (SMILES): CC(=O)O[C@H]1C(=O)[C@@]2(C)[C@H]([C@H](OC(=O)c3ccccc3)[C@]3(O)C[C@H](OC(=O)[C@H](O)[C@@H](NC(=O)c4ccccc4)c4ccccc4)C(C)=C1C3(C)C)[C@]1(OC(C)=O)CO[C@@H]1C[C@@H]2O [paclitaxel]
- paclitaxel concentration that reliably inhibits growth (Melanoma cell line): 1 to 10 ng/mL
- paclitaxel concentration that reliably inhibits growth [1]: 1 to 10 ng/mL
- range of tumoricidal effects of paclitaxel (Tumor cells): 5 to 10 ng
- paclitaxel concentration that reliably inhibits growth [2]: 1 to 10 ng/mL
